Assay results reported in PubChem BioAssay (NCI).
“And” between values parts separate entries of the source, which are not always exact repeats. Equal values may be shown once.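 Results reflect a 48-hour exposure of cells in 96-well plates to compound at five concentrations. GI50 = concentration required for 50% inhibition of growth. TGI: concentration producing complete growth inhibition.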

How the values were obtained:
Experiment in all cases: NCI tumour cell line growth inhibition, 48 h
[1] = tested on: SNB-19 CNS
[2] = tested on: MOLT-4 leukemia
[3] = tested on: NCI-H522 lung
[4] = tested on: M14 melanoma
[5] = tested on: LOX IMVI melanoma
[6] = tested on: SN12C renal
[7] = tested on: SNB-75 CNS
[8] = tested on: RPMI-8226 leukemia
[9] = tested on: UACC-257 melanoma
[10] = tested on: PC-3 prostate

Structure (SMILES)	GI50 [1] [µM]	TGI [1]	GI50 [2] [µM]	TGI [2]	GI50 [3]	TGI [3]	GI50 [4] [µM]	TGI [4]	GI50 [5] [µM]	TGI [5]	GI50 [6] [µM]	TGI [6]	GI50 [7] [µM]	TGI [7]	GI50 [8] [µM]	TGI [8] [µM]	GI50 [9] [µM]	TGI [9]	GI50 [10] [µM]	TGI [10]
COc1cc(NC(=O)c2cc(O)c(CC=C(C)C)c(O)c2)cc2c1O[C@]1(C)CC[C@@H](O)C(C)(C)[C@H]1C2	3.68	21 µM	2.07	7.87 µM	3.42 µM	12.3 µM	2.94	13.5 µM	3.07	19.1 µM	8.83	36.6 µM	0.772	25.9 µM	0.428	2.73	3.37	15.7 µM	3.03	35.1 µM
CCS(=O)(=O)c1ccc(OC)c(Nc2ncc(-c3cccc(OC)c3)o2)c1	12	> 25 µM	13.5	> 25 µM	8.58 µM	22.5 µM	14.6	> 25 µM	6.12	24.8 µM	8.3	> 25 µM	6.26	> 18.2 µM	> 16.5	> 25	> 22.2	> 25 µM	8.61	> 25 µM
CN/N=C(/CCN1CCCC1)CC(c1ccccc1)c1c(O)c2ccccc2oc1=O (stereo unspecified)	–	> 100 µM	–	> 100 µM	–	> 100 µM	–	> 100 µM	–	> 100 µM	–	> 100 µM	–	> 31.6 µM	–	> 31.6	–	> 100 µM	–	> 100 µM
c1ccc(C2=NNC3c4ccccc4-c4ccccc4N3C2)cc1 (stereo unspecified)	–	> 100 µM	–	56.9 µM	–	80.3 µM	–	> 100 µM	–	> 100 µM	–	> 100 µM	–	66.1 µM	–	57.8	–	61.6 µM	–	65.5 µM
CCN(CC)c1sc(N(CC)CC)c2c1SSSSS2	2.64	12.7 µM	0.343	> 100 µM	0.416 µM	–	1.45	3.23 µM	1.01	3.31 µM	0.315	0.866 µM	2.71	4.52 µM	0.366	1.36	1.79	4.08 µM	2.05	4.26 µM
CCC1(O)C(=O)OCc2c1cc1n(c2=O)Cc2cc3ccc(C=O)cc3nc2-1 (stereo unspecified)	1.67	50 µM and > 100 µM	0.209	1.78 µM and 1.05 µM	6.8 µM and 2.9 µM	15.4 µM and 13.8 µM	1.44	50 µM and 19.2 µM	0.403	7.8 µM and 5.58 µM	1.39	50 µM and 7.53 µM	–	30.8 µM and 14.5 µM	–	30.4	7.73	23.7 µM and 43.7 µM	–	50 µM and > 100 µM
CCN(CC)CCCC(C)Nc1c(C)cnc2cc(Cl)c(C)cc12 (stereo unspecified)	17.7	50.6 µM	0.845	8.27 µM	23 µM	53.1 µM	1.76	3.19 µM	2.17	10.7 µM	11.2	43.9 µM	17.8	36 µM	2.38	9.82	18.2	34.4 µM	9.69	26.4 µM
COc1ccc(OC)c(/C=C/C(=O)N/N=C/c2ccc(Cl)cc2)c1	0.159	> 100 µM	0.213	> 100 µM	0.0298 µM	5.72 µM	0.0633	> 25.9 µM	0.115	> 100 µM	0.488	> 100 µM	0.0537	0.674 µM	0.286	> 39.6	36.5	> 100 µM	0.105	> 100 µM
CCN1C(=O)CNc2ncc(-c3ccc(-c4ncn[nH]4)nc3C)nc21	0.337	6.9 µM	0.139	1.54 µM	0.147 µM	2.88 µM	0.0917	2.79 µM	0.205	2.47 µM	0.168	14.9 µM	0.0369	0.321 µM	0.0454	0.553	0.184	2.11 µM	0.0706	1.97 µM
CC1CN1CC(O)C(O)CN1CC1C (stereo unspecified)	6.21	> 100 µM	0.234	3.15 µM	1.72 µM	7.08 µM	2.16	28.7 µM	0.814	11.4 µM	0.692	> 67.8 µM	4.08	> 63 µM	8.86	> 88.6	3.12	23.3 µM	12.5	> 78.4 µM
NCCCC[C@@H]1NC(=O)[C@H]2CCCN2C(=O)[C@H](Cc2ccccc2)NC(=O)[C@H](Cc2ccccc2)CNC1=O	> 100	> 100 µM	> 100	> 100 µM	> 100 µM	> 100 µM	> 100	> 100 µM	> 100	> 100 µM	> 100	> 100 µM	> 100	> 100 µM	> 100	> 100	> 100	> 100 µM	> 100	> 100 µM
C[N+](C)(C)CC1CCCC(C[N+](C)(C)C)C1=O (stereo unspecified)	–	38 µM	–	3.85 µM	–	53.2 µM	–	2.37 µM	–	3.09 µM	–	1.5 µM	–	14.5 µM	–	0.256	–	1.48 µM	–	10.3 µM
